# Data published in patent publication US20120122870A1, “Treatment Of Ischemia-Reperfusion Injury” (MUSC FOUNDATION FOR RESEARCH DEVELOPMENT, priority 2009, published 2012).
# Biological target: T1, recombinant human SK (Homo sapiens, UniProt Q9NYA1)
# T1 construct: GST (glutathione-S-transferase) (N); made in house; host or cells: bacteria (pGEX bacterial expression vector)
# Assay: Recombinant human SK activity assay ([3H]sphingosine to [3H]S1P)
# Type: biochemical
# Conditions: Human SK incubated with 6 μg/mL of compound; percentage of SK activity inhibited
# Description: SK activity is measured by incubation of the recombinant SK with [^3H]sphingosine and 1 mM ATP under defined conditions, followed by extraction of the assay mixture with chloroform:methanol under basic conditions. […] Radioactivity in aliquots of the aqueous phase is then quantified as a measure of [^3H]S1P formation.
# (§1) Human SK was incubated with 6 μg/mL of the indicated compounds, and then assayed for activity as described above. Values in the column labeled “Recombinant SK (% inhibition)” represent the percentage of SK activity that was inhibited. MDA-MB-231 cells were incubated with 20 μg/mL of the indicated compounds and then assayed for endogenous SK activity as indicated above. Values in the column labeled “Cellular S1P (% inhibition)” represent the percentage of S1P production that was inhibited. Additionally, MDA-MB-231 cells were treated with varying concentration of certain compounds and the amount of S1P produced by the cells was determined. Values in the column labeled “Cellular S1P IC50 (μM)” represent the concentration of compound required to inhibit the production of S1P by 50%. ND=not determined.
# T1 sequence (Q9NYA1 whole entry): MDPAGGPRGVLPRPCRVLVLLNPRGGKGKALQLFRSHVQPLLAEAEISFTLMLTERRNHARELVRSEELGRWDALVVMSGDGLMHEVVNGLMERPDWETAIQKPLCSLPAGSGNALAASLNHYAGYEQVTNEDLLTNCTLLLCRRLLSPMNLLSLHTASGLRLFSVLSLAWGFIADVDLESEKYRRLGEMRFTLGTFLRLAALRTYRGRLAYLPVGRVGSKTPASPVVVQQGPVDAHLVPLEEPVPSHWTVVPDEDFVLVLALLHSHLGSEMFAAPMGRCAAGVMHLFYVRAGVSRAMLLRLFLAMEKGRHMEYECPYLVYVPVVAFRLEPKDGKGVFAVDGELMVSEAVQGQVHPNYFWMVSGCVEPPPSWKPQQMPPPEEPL
Structure (SMILES),inhibition at 6 µg/mL [%],Recombinant SK (% inhibition) [%]
"CC(C)NC(=O)C12CC3CC(C1)CC(c1ccc(Cl)cc1)(C3)C2 [A1, 3-(4-Chloro-phenyl)-adamantane-1-carboxylic acid isopropylamide]",38,
"O=C(Nc1ccccc1)C12CC3CC(C1)CC(c1ccc(Cl)cc1)(C3)C2 [A4, 3-(4-Chloro-phenyl)-adamantane-1-carboxylic acid phenylamide]",44,
"O=C(Nc1ccc(O)cc1)C12CC3CC(CC(C3)C1)C2 [A5, Adamantane-1-carboxylic acid (4-hydroxy-phenyl)-amide]",100,
"O=C(Nc1ccc(O)cc1)C12CC3CC(C1)CC(c1ccc(Cl)cc1)(C3)C2 [A6, 3-(4-Chloro-phenyl)-adamantane-1-carboxylic acid (4-hydroxy-phenyl)-amide]",72,
"CC(=O)Oc1ccc(NC(=O)C23CC4CC(C2)CC(c2ccc(Cl)cc2)(C4)C3)cc1 [A7, Acetic acid 4-{[3-(4-chloro-phenyl)-adamantane-1-carbonyl]-amino}-phenyl ester]",100,
"O=C(Nc1ccc(O)cc1O)C12CC3CC(C1)CC(c1ccc(Cl)cc1)(C3)C2 [A8, 3-(4-Chloro-phenyl)-adamantane-1-carboxylic acid (2,4-dihydroxy-phenyl)-amide]",49,
"O=C(NCc1ccc(O)c(O)c1)C12CC3CC(C1)CC(c1ccc(Cl)cc1)(C3)C2 [A36, 3-(4-Chloro-phenyl)-adamantane-1-carboxylic acid 3,4-dihydroxy-benzylamide]",37,
"COc1ccc(CCNC(=O)C23CC4CC(C2)CC(c2ccc(Cl)cc2)(C4)C3)cc1Br [A42, 3-(4-Chloro-phenyl)-adamantane-1-carboxylic acid [2-(3-bromo-4-methoxy-phenyl)-ethyl]-amide]",5,
"O=C(NCCc1ccc2c(c1)OCO2)C12CC3CC(C1)CC(c1ccc(Cl)cc1)(C3)C2 [A45, 3-(4-Chloro-phenyl)-adamantane-1-carboxylic acid (2-benzo[1,3]dioxol-5-yl-ethyl)-amide]",64,
"O=C(NCCc1cccc(Oc2ccccc2)c1)C12CC3CC(C1)CC(c1ccc(Cl)cc1)(C3)C2 [A46, 3-(4-Chloro-phenyl)-adamantane-1-carboxylic acid [2-(3-phenoxy-phenyl)-ethyl]-amide]",4,
"O=C(NCCc1ccc(Oc2ccccc2)cc1)C12CC3CC(C1)CC(c1ccc(Cl)cc1)(C3)C2 [A47, 3-(4-Chloro-phenyl)-adamantane-1-carboxylic acid [2-(4-phenoxy-phenyl)-ethyl]-amide]",26,
"O=C(NCc1ccc(-c2ccccc2)cc1)C12CC3CC(C1)CC(c1ccc(Cl)cc1)(C3)C2 [A49, 3-(4-Chloro-phenyl)-adamantane-1-carboxylic acid (biphenyl-4-ylmethyl)-amide]",33,
"CC(C)(C)NCCCNC(=O)C12CC3CC(C1)CC(c1ccc(Cl)cc1)(C3)C2 [A53, 3-(4-Chloro-phenyl)-adamantane-1-carboxylic acid (3-tert-butylamino-propyl)-amide]",52,
"O=C(NCCCN1CCCC1)C12CC3CC(C1)CC(c1ccc(Cl)cc1)(C3)C2 [A54, 3-(4-Chloro-phenyl)-adamantane-1-carboxylic acid (3-pyrrolidin-1-yl-propyl)-amide]",95,
"O=C1CCCN1CCCNC(=O)C12CC3CC(C1)CC(c1ccc(Cl)cc1)(C3)C2 [A55, 3-(4-Chloro-phenyl)-adamantane-1-carboxylic acid [3-(2-oxo-pyrrolidin-1-yl)-propyl]-amide]",8,
"O=C(NCCN1CCNCC1)C12CC3CC(C1)CC(c1ccc(Cl)cc1)(C3)C2 [A59, 3-(4-Chloro-phenyl)-adamantane-1-carboxylic acid (2-piperazin-1-yl-ethyl)-amide]",0,
"O=C(NCCCn1ccnc1)C12CC3CC(C1)CC(c1ccc(Cl)cc1)(C3)C2 [A65, 3-(4-Chloro-phenyl)-adamantane-1-carboxylic acid (3-imidazol-1-yl-propyl)-amide]",3,
"O=C(Nc1nnn[nH]1)C12CC3CC(C1)CC(c1ccc(Cl)cc1)(C3)C2 [A67, 3-(4-Chloro-phenyl)-adamantane-1-carboxylic acid (1H-tetrazol-5-yl)-amide]",10,
"O=C(Nc1ncnc2[nH]cnc12)C12CC3CC(C1)CC(c1ccc(Cl)cc1)(C3)C2 [A73, 3-(4-Chloro-phenyl)-adamantane-1-carboxylic acid (9H-purin-6-yl)-amide]",53,

Structure (SMILES),inhibition at 6 µg/mL [%],Recombinant SK (% inhibition) [%]
"FC(F)(F)c1ccc(CNCC23CC4CC(C2)CC(c2ccc(Cl)cc2)(C4)C3)cc1 [A77, [3-(4-Chloro-phenyl)-adamantan-1-ylmethyl]-(4-trifluoromethyl-benzyl)-amine]",27,
"Fc1cc(C(F)(F)F)ccc1CNCC12CC3CC(C1)CC(c1ccc(Cl)cc1)(C3)C2 [A78, [3-(4-Chloro-phenyl)-adamantan-1-ylmethyl]-(2-fluoro-4-trifluoromethyl-benzyl)-amine]",43,
"Fc1ccc(CNCC23CC4CC(C2)CC(c2ccc(Cl)cc2)(C4)C3)cc1C(F)(F)F [A79, [3-(4-Chloro-phenyl)-adamantan-1-ylmethyl]-(4-fluoro-3-trifluoromethyl-benzyl)-amine]",19,
"FC(F)(F)Oc1ccc(CNCC23CC4CC(C2)CC(c2ccc(Cl)cc2)(C4)C3)cc1 [A80, [3-(4-Chloro-phenyl)-adamantan-1-ylmethyl]-(4-trifluoromethoxy-benzyl)-amine]",5,
"Clc1ccc(C23CC4CC(CC(CNCCc5cccc(Oc6ccccc6)c5)(C4)C2)C3)cc1 [A81, [3-(4-Chloro-phenyl)-adamantan-1-ylmethyl]-[2-(3-phenoxy-phenyl)-ethyl]-amine]",67,
"CN1CCC(NCC23CC4CC(C2)CC(c2ccc(Cl)cc2)(C4)C3)CC1 [A82, [3-(4-Chloro-phenyl)-adamantan-1-ylmethyl]-(1-methyl-piperidin-4-yl)-amine]",75,
"CC(C)(C)NCCCNCC12CC3CC(C1)CC(c1ccc(Cl)cc1)(C3)C2 [A84, N-tert-Butyl-N′-[3-(4-chloro-phenyl)-adamantan-1-ylmethyl]-propane-1,3-diamine]",84,
"Clc1ccc(C23CC4CC(CC(CNCCCN5CCCC5)(C4)C2)C3)cc1 [A85, [3-(4-Chloro-phenyl)-adamantan-1-ylmethyl]-(3-pyrrolidin-1-yl-propyl)-amine]",0,
"CN1CCCC1CCNCC12CC3CC(C1)CC(c1ccc(Cl)cc1)(C3)C2 (stereo not drawn) [A86, [3-(4-Chloro-phenyl)-adamantan-1-ylmethyl]-[2-(1-methyl-pyrrolidin-2-yl)-ethyl]-amine]",6,
"Clc1ccc(C23CC4CC(CC(CNCc5ccncc5)(C4)C2)C3)cc1 [A88, [3-(4-Chloro-phenyl)-adamantan-1-ylmethyl]-pyridin-4-ylmethyl-amine]",1,
"CC(Nc1ccccc1)C12CC3CC(CC(c4ccccc4)(C3)C1)C2 (stereo not drawn) [A93, Phenyl-[1-(3-phenyl-adamantan-1-yl)-ethyl]-amine]",70,
"CC(NC1CCN(C)CC1)C12CC3CC(CC(C3)C1)C2 (stereo not drawn) [A104, (1-Adamantan-1-yl-ethyl)-(1-methyl-piperidin-4-yl)-amine]",0,
"O=C(/C=C/c1ccc(Cl)cc1)C12CC3CC(C1)CC(c1ccc(Cl)cc1)(C3)C2 [A130, 3-(4-Chloro-phenyl)-1-[3-(4-chloro-phenyl)-adamantan-1-yl]-propenone]",38,
"N#Cc1ccc(/C=C/C(=O)C23CC4CC(C2)CC(c2ccc(Cl)cc2)(C4)C3)cc1 [A131, 4-{3-[3-(4-Chloro-phenyl)-adamantan-1-yl]-3-oxo-propenyl}-benzonitrile]",41,
"O=C(/C=C/c1ccc(O)cc1)C12CC3CC(C1)CC(c1ccc(Cl)cc1)(C3)C2 [A132, 1-[3-(4-Chloro-phenyl)-adamantan-1-yl]-3-(4-hydroxy-phenyl)-propenone]",8,
"O=C(/C=C/c1ccc2ccccc2c1)C12CC3CC(C1)CC(c1ccc(Cl)cc1)(C3)C2 [A133, 1-[3-(4-Chloro-phenyl)-adamantan-1-yl]-3-naphthalen-2-yl-propenone]",36,
"O=C(/C=C/c1ccc(Cl)nc1)C12CC3CC(C1)CC(c1ccc(Cl)cc1)(C3)C2 [A134, 1-[3-(4-Chloro-phenyl)-adamantan-1-yl]-3-(6-chloro-pyridin-3-yl)-propenone]",52,
"O=C(/C=C/c1cnc[nH]1)C12CC3CC(C1)CC(c1ccc(Cl)cc1)(C3)C2 [A135, 1-[3-(4-Chloro-phenyl)-adamantan-1-yl]-3-(1H-imidazol-4-yl)-propenone]",64,
"O=C(NCCCN1CCCC1)c1nc(-c2ccc(Cl)cc2)cs1 [B59, 4-(4-Chloro-phenyl)-thiazole-2-carboxylic acid (3-pyrrrolidin-1-yl-propyl)-amide]",,46

# Tested on: endogenous SK activity in MDA-MB-231 cells
# Assay: Cellular S1P production (endogenous SK activity) in MDA-MB-231 cells
# Type: cell-based
# Conditions: Homo sapiens, MDA-MB-231, MDA-MB-231 cells incubated with 20 μg/mL of compound; percentage of S1P production inhibited
# Description: as §1
row,Structure (SMILES),inhibition at 20 µg/mL [%]
1,"CC(C)NC(=O)C12CC3CC(C1)CC(c1ccc(Cl)cc1)(C3)C2 [A1, 3-(4-Chloro-phenyl)-adamantane-1-carboxylic acid isopropylamide]",0
2,"O=C(Nc1ccccc1)C12CC3CC(C1)CC(c1ccc(Cl)cc1)(C3)C2 [A4, 3-(4-Chloro-phenyl)-adamantane-1-carboxylic acid phenylamide]",14
3,"O=C(Nc1ccc(O)cc1)C12CC3CC(CC(C3)C1)C2 [A5, Adamantane-1-carboxylic acid (4-hydroxy-phenyl)-amide]",17
4,"O=C(Nc1ccc(O)cc1)C12CC3CC(C1)CC(c1ccc(Cl)cc1)(C3)C2 [A6, 3-(4-Chloro-phenyl)-adamantane-1-carboxylic acid (4-hydroxy-phenyl)-amide]",90
5,"CC(=O)Oc1ccc(NC(=O)C23CC4CC(C2)CC(c2ccc(Cl)cc2)(C4)C3)cc1 [A7, Acetic acid 4-{[3-(4-chloro-phenyl)-adamantane-1-carbonyl]-amino}-phenyl ester]",96
6,"O=C(Nc1ccc(O)cc1O)C12CC3CC(C1)CC(c1ccc(Cl)cc1)(C3)C2 [A8, 3-(4-Chloro-phenyl)-adamantane-1-carboxylic acid (2,4-dihydroxy-phenyl)-amide]",0

# Same assay, conditions: Homo sapiens; MDA-MB-231 cells, varying concentrations; concentration inhibiting S1P production by 50%
row,Structure (SMILES),IC50 [µM]
1,"O=C(Nc1ccc(O)cc1)C12CC3CC(C1)CC(c1ccc(Cl)cc1)(C3)C2 [A6, 3-(4-Chloro-phenyl)-adamantane-1-carboxylic acid (4-hydroxy-phenyl)-amide]",15
